17 compounds from patent US12172983B2, “EGFR inhibitors” (Blueprint Medicines Corporation, priority 2019, dated 2024) can be followed below.

The target of test [1] is T1, EGFR (L858R T790M C797S) (Homo sapiens, UniProt P00533, C797S/L858R/T790M).
T1 construct: purchased SignalChem E10-122VG
Briefly: Biochemical EGFR inhibition assay (Caliper mobility shift), EGFR LRTMCS mutant. The note with it: inhibitory activity against EGFR LRTMCS mutant; apparent IC50; read-out: Ext Enz LRTMCS. How it is done: Reactions proceeded until between 10% to 20% total peptides were phosphorylated at room temperature (25° C.) and were terminated with 35 mM 2,2′,2″,2′″-(ethane-1,2-diyldinitrilo)tetraacetic acid (EDTA). Product was detected using the Caliper mobility shift detection method where the phosphorylated peptide (product) and substrate were electrophoretically separated and measured. Percent activity was plotted against log concentration of compound and points to generate an apparent IC50.

Test [2] relates to phosphorylation of EGFR (Tyr1068) in NCI-H1975 cell line that harbors the EGFR L858R T790M mutations. Description: NCI-H1975 pEGFR AlphaLISA assay. The note with it: 4-5 hours incubation, read-out: Ext pEGFR H1975. It is filed as cell-based. How it is done:
Inhibitory effects of the compounds of the disclosure were evaluated in cellular assays that measure level of intracellular phosphorylation of EGFR in NCI-H1975 cell line that harbors the EGFR L858R T790M mutations (ATCC, CRL-5908) using AlphaLISA sureFire ultra p-EGFR (Tyr1068) assay kit (PerkinElmer, ALSU-PEGFR-A50K). The NCI-H1975 cells were seeded at 12.5K/well in 22 μL into 384 well opti plate (PerkinElmer, 6007299) and adhering overnight at 37 C/5% CO2. On the next day, the test compounds and DMSO control were added into H1975 cell plate followed by incubation at 37 C/5% CO2 for 4-5 hours. The cells were then spin down in the 384-well plate and lysed with 10 μL of 1×AlphaLISA lysis buffer followed by shaking at 600 rpm for 10 minutes at room temperature. After that, 5 μL of an acceptor bead mix was added to each well followed by incubation at room temperature for 1.5-2 h in dark. Then 5 μL of a donor bead mix was added to each well followed by overnight incubation at room temperature in dark. On the next day, the plate was read at a compatible plate reader to obtain pEGFR signal. Percent of pEGFR inhibition was plotted against log concentration of compounds to generate IC50 values.
On the technique in general: Bead proximity is the source of the signal in Alpha formats.

[3] abbreviates: Homo sapiens, NCI-H1975, inhibition of phosphorylation of mutant EGFR in NCI-H1975 cells.
The mark [4] stands for this setting: inhibition of phosphorylation of mutant EGFR in NCI-H1975 cells.

Read-outs that look alike come from different tables or passages of the source. Some results are limits rather than exact numbers.

T1 sequence (P00533 25-1210 T790M/C797S/L858R): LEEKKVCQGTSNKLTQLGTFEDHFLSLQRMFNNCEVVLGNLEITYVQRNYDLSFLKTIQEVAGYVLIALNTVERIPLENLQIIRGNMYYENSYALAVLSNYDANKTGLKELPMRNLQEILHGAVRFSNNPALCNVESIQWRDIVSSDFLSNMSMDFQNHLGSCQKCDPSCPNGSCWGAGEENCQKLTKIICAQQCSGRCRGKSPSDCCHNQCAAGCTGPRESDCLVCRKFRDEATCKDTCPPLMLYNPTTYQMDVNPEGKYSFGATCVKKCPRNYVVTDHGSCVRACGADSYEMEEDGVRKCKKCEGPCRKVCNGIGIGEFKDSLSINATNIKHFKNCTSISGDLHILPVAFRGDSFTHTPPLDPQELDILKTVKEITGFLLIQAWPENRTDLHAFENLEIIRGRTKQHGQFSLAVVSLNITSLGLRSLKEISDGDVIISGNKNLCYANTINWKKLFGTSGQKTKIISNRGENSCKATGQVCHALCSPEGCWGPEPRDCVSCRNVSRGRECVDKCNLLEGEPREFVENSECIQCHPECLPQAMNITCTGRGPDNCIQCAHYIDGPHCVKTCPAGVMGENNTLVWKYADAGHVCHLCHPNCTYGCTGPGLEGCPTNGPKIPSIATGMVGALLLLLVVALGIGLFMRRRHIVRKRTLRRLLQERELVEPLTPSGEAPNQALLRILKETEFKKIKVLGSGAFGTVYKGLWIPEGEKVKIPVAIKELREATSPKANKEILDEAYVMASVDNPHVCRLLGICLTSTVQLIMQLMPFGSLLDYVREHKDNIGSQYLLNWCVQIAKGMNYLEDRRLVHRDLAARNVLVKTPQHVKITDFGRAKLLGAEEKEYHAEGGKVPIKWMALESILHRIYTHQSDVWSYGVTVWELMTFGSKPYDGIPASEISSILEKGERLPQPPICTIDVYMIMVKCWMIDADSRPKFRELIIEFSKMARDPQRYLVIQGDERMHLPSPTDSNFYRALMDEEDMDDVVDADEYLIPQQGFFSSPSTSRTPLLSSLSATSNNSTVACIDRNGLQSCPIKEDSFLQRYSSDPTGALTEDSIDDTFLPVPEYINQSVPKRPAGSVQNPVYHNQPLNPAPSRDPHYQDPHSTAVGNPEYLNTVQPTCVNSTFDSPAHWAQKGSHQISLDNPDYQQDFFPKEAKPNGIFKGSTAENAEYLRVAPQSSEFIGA

Consider `CO[C@@H]1CCN(c2nncc(Nc3cc4c(C(C)C)ccc(N5C[C@H](CS(C)(=O)=O)[C@H]5C)c4cn3)n2)C[C@@H]1F` [Compound 134, N-(3-((3S,4R)-3-fluoro-4-methoxypiperidin-1-yl)-1,2,4-triazin-5-yl)-5-isopropyl-8-((2R,3S)-2-methyl-3-(methylsulfonylmethyl)azetidin-1-yl)isoquinolin-3-amine], for which the IC50 is at most 15 nM in test [1] and at most 10 nM in test [2] (setting [3]).
Take `CC(C)c1cnc(N2CC(CS(C)(=O)=O)C2)c2cnc(Nc3ccnc(N4CCN(C)CC4)n3)cc12` [Compound 3, 8-[3-(methanesulfonylmethyl)azetidin-1-yl]-N-[2-(4-methylpiperazin-1-yl)pyrimidin-4-yl]-5-(propan-2-yl)-2,7-naphthyridin-3-amine]: the IC50 fell in the range of 20.1 to 30 nM in test [1] and 30.1 to 50 nM in test [2] (setting [3]).
As to `CC(C)c1cnc(N2C[C@H](CS(C)(=O)=O)[C@H]2C)c2cnc(Nc3ccnc(N4CC[C@@](C)(O)[C@@H](F)C4)n3)cc12` (single isomer, unassigned) [Compound 137], the IC50 is at most 15 nM in test [1] and at most 10 nM in test [2] (setting [3]).
With `CO[C@H]1CCN(c2nncc(Nc3cc4c(C(C)C)ccc(N5CC(CS(C)(=O)=O)C5)c4cn3)n2)C[C@H]1F` [Compound 76, N-{3-[(3R,4S)-3-fluoro-4-methoxypiperidin-1-yl]-1,2,4-triazin-5-yl}-8-[3-(methanesulfonylmethyl)azetidin-1-yl]-5-(propan-2-yl)isoquinolin-3-amine], the results for the IC50 in test [1] and in test [2] (setting [3]) were at most 15 nM and at most 10 nM, respectively.
Taken in the same sequence, the figures for `CC(C)c1ccc(N2CC(CS(C)(=O)=O)C2)c2cnc(Nc3ccnc(N4CC[C@](C)(O)C(F)(F)C4)n3)cc12` (single isomer, unassigned) [Compound 153, (4S)-3,3-difluoro-1-[4-({8-[3-(methanesulfonylmethyl)azetidin-1-yl]-5-(propan-2-yl)isoquinolin-3-yl}amino)pyrimidin-2-yl]-4-methylpiperidin-4-ol or (4R)-3,3-difluoro-1-[4-({8-[3-(methanesulfonylmethyl)azetidin-1-yl]-5-(propan-2-yl)isoquinolin-3-yl}amino)pyrimidin-2-yl]-4-methylpiperidin-4-ol] were at most 15 nM and 10.1 to 20 nM.
In the case of `CCS(=O)(=O)C[C@H]1CN(c2ccc(C(C)C)c3cc(Nc4ccnc(N5CC[C@H](OC)[C@@H](O)C5)n4)ncc23)[C@@H]1C` (single isomer, unassigned) [Compound 177, (3S,4S)-1-(4-(8-((2R,3S)-3-(ethylsulfonylmethyl)-2-methylazetidin-1-yl)-5-isopropylisoquinolin-3-ylamino)pyrimidin-2-yl)-4-methoxypiperidin-3-ol or (3R,4R)-1-(4-(8-((2R,3S)-3-(ethylsulfonylmethyl)-2-methylazetidin-1-yl)-5-isopropylisoquinolin-3-ylamino)pyrimidin-2-yl)-4-methoxypiperidin-3-ol], the figures for the IC50 in test [1] and in test [2] (setting [3]) were at most 15 nM and at most 10 nM, respectively.
The corresponding values for `COC1CCN(c2nccc(Nc3cc4c(C(C)C)cnc(N5CC(CS(C)(=O)=O)C5)c4cn3)n2)CC1` [Compound 22, 8-[3-(methanesulfonylmethyl)azetidin-1-yl]-N-[2-(4-methoxypiperidin-1-yl)pyrimidin-4-yl]-5-(propan-2-yl)-2,7-naphthyridin-3-amine] are at most 15 nM and at most 10 nM.
Take `CC(C)c1ccc(N2CC(CS(C)(=O)=O)C2)c2cnc(Nc3ccnc(N4C[C@@H](F)[C@@H](O)[C@@](C)(F)C4)n3)cc12` (single isomer, unassigned) [Compound 155, (3S,4R,5R)-3,5-difluoro-1-[4-({8-[3-(methanesulfonylmethyl)azetidin-1-yl]-5-(propan-2-yl)isoquinolin-3-yl}amino)pyrimidin-2-yl]-3-methylpiperidin-4-ol or (3R,4S,5S)-3,5-difluoro-1-[4-({8-[3-(methanesulfonylmethyl)azetidin-1-yl]-5-(propan-2-yl)isoquinolin-3-yl}amino)pyrimidin-2-yl]-3-methylpiperidin-4-ol]: the IC50 was at most 15 nM in test [1] and at most 10 nM in test [2] (setting [3]).
Taken in the same sequence, the figures for `CC(CF)c1ccc(N2CC(CS(C)(=O)=O)C2)c2cnc(Nc3ccnc(N4CC[C@@H](O)[C@@](C)(F)C4)n3)cc12` (single isomer, unassigned) [Compound 154] were at most 15 nM and 20.1 to 30 nM.
In the case of `CC(C)c1ccc(N2CC(CS(C)(=O)=O)C2)c2cnc(Nc3ccnc(N4CC[C@H](O)[C@H](C)C4)n3)cc12` (single isomer, unassigned) [Compound 20, (3R,4S)-1-[4-({8-[3-(methanesulfonylmethyl)azetidin-1-yl]-5-(propan-2-yl)isoquinolin-3-yl}amino)pyrimidin-2-yl]-3-methylpiperidin-4-ol or (3S,4R)-1-[4-({8-[3-(methanesulfonylmethyl)azetidin-1-yl]-5-(propan-2-yl)isoquinolin-3-yl}amino)pyrimidin-2-yl]-3-methylpiperidin-4-ol], the IC50 in test [1] was 15.1 to 20 nM; in test [2] (setting [4]), 30.1 to 50 nM.
`CCS(=O)(=O)CC1CN(c2ncc(C(C)C)c3cc(Nc4ccnc(N5CC[C@@H](O)[C@@](C)(F)C5)n4)ncc23)C1` (single isomer, unassigned) [Compound 124]: the IC50 in test [1] was at most 15 nM; in test [2] (setting [3]), at most 10 nM.
As for `CC(C)c1ccc(N2C[C@H](CS(C)(=O)=O)[C@H]2C)c2cnc(Nc3ccnc(N4CC[C@](C)(O)[C@H](O)C4)n3)cc12` (single isomer, unassigned) [Compound 101, (4R)-1-[4-({8-[(2R,3S)-3-(methanesulfonylmethyl)-2-methylazetidin-1-yl]-5-(propan-2-yl)isoquinolin-3-yl}amino)pyrimidin-2-yl]-4-methylpiperidine-3,4-diol or (3S,4R)-1-[4-({8-[(2R,3S)-3-(methanesulfonylmethyl)-2-methylazetidin-1-yl]-5-(propan-2-yl)isoquinolin-3-yl}amino)pyrimidin-2-yl]-4-methylpiperidine-3,4-diol], the IC50 in test [1] was at most 15 nM; in test [2] (setting [4]), 10.1 to 20 nM.
As for `CC(C)c1cnc(N2CC([C@@H](C)S(C)(=O)=O)C2)c2cnc(Nc3ccnc(N4CC[C@@H](O)[C@@](C)(F)C4)n3)cc12` (single isomer, unassigned) [Compound 127], the IC50 in test [1] was at most 15 nM; in test [2] (setting [3]) it was at most 10 nM.
On to `CC(C)c1ccc(N2C[C@H](CS(C)(=O)=O)[C@H]2C)c2cnc(Nc3ccnc(N4CC[C@@H](OCCN(C)C)C(F)(F)C4)n3)cc12` (single isomer, unassigned) [Compound 304, N-{2-[(4R)-4-[2-(dimethylamino)ethoxy]-3,3-difluoropiperidin-1-yl]pyrimidin-4-yl}-8-[(2R,3S)-3-(methanesulfonylmethyl)-2-methylazetidin-1-yl]-5-(propan-2-yl)isoquinolin-3-amine or N-{2-[(4S)-4-[2-(dimethylamino)ethoxy]-3,3-difluoropiperidin-1-yl]pyrimidin-4-yl}-8-[(2R,3S)-3-(methanesulfonylmethyl)-2-methylazetidin-1-yl]-5-(propan-2-yl)isoquinolin-3-amine], for which the IC50 is at most 15 nM in test [1] and at most 10 nM in test [2] (setting [3]).
Turning to `CCS(=O)(=O)C[C@H]1CN(c2ccc(C(C)C)c3cc(Nc4ccnc(N5CC[C@@H](OCCO)[C@@H](F)C5)n4)ncc23)[C@@H]1C` [Compound 244, 2-((3S,4R)-1-(4-(8-((2R,3S)-3-(ethylsulfonylmethyl)-2-methylazetidin-1-yl)-5-isopropylisoquinolin-3-ylamino)pyrimidin-2-yl)-3-fluoropiperidin-4-yloxy)ethanol], the results for the IC50 in test [1] and in test [2] (setting [3]) were at most 15 nM and at most 10 nM, respectively.
With `CC(C)c1ccc(N2C[C@@H](CS(C)(=O)=O)[C@H]2C)c2cnc(Nc3ccnc(N4CC[C@](C)(O)[C@H](F)C4)n3)cc12` (single isomer, unassigned) [Compound 121], the IC50 in test [1] was 15.1 to 20 nM; in test [2] (setting [3]), at most 10 nM.
Taken in the same sequence, the figures for `COCCO[C@@H]1CCN(c2nccc(Nc3cc4c(F)ccc(N5C[C@H](CS(C)(=O)=O)[C@H]5C)c4cn3)n2)C[C@@H]1F` (single isomer, unassigned) [Compound 217] were at most 15 nM and 20.1 to 30 nM.
